From patent US20090215774A1, “USES OF INDANE COMPOUNDS” (H. LUNDBECK A/S, priority 2008, published 2009)
Read-outs that look alike come from different tables or passages of the source.

What was measured:
[1] = target: NAT Noradrenergic Transporter (Rattus norvegicus, UniProt Q9WTR4); experiment: Measurements of [3H]noradrenaline uptake into rat cortical synaptosomes; assay type: biochemical
Experimental: Measurements of [^3H]Noradrenaline Uptake Into Rat Cortical Synaptosomes
The homogenate is centrifuged at 1000×g for 10 min at 4° C. The pellet is discarded and the supernatant is centrifuged at 40.000×g for 20 min. […] Pellet is suspended in 140 volumes of assaybuffer. Tissue is mixed with test compounds and after 10 min pre-incubation, 10 nM [^3H]-noradrenaline is added to a final volume of 0.2 ml and the mixture is incubated for 15 min at 37° C. After 15 min incubation, samples are filtered directly on Unifilter GF/C glass fiber filters (soaked for 30 min in 0.1% polyethylenimine) under vacuum and immediately washed with 1×0.2 mL assay buffer. Non-specific uptake is determined using talsupram (10 μM final concentration). Duloxetine is included as reference in all experiments as dose-response curve.

DAT Dopamine Transporter = target: T1, DAT Dopamine Transporter (Rattus norvegicus, UniProt P23977); experiment: Measurements of [3H]dopamine uptake into rat cortical synaptosomes; assay type: biochemical
T1 construct: male wistar rats (125-250 g) are sacrificed by decapitation and striatum quickly dissected out; from tissue; host or cells: rat striatum, P2 fraction
T1 sequence (P23977 whole entry): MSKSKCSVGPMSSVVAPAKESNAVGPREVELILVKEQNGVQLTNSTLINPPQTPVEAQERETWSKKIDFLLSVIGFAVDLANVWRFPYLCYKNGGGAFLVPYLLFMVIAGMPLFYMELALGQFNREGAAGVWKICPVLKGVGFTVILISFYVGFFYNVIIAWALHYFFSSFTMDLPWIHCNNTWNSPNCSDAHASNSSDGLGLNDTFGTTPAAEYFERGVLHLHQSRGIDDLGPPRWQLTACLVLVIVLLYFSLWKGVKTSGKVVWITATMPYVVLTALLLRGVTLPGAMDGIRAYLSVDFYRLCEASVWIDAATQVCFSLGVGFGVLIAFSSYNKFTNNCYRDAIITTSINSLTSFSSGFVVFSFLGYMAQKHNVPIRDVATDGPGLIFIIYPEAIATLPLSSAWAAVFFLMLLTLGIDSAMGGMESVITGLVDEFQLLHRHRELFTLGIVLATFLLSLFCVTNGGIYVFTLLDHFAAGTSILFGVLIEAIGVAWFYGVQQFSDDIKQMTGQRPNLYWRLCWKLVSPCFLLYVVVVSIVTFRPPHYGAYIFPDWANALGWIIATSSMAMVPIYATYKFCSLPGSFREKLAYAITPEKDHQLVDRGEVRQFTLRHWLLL
Experimental: Measurements of [^3H]Dopamine Uptake Into Rat Cortical Synaptosomes
The tissue is gently homogenised (glass teflon homogeniser) and the P2 fraction is obtained by centrifugation (1000 g, 10 minutes and 40000 g, 20 minutes, 4° C.) and suspended in 560 volumes of a modified Krebs-Ringer-phosphate buffer, pH 7.4.
Tissue 0.25 mg/well (140 μl) (original tissue) is mixed with test suspension. […] Final volume is 0.2 mL. The incubation is terminated by filtering the samples under vacuum through Whatman GF/C filters with a wash of 1×0.2 ml buffer. The filters are dried and appropriate scintillation fluid (Optiphase Supermix) is added. After storage for 2 hours in the dark the content of radioactivity is determined by liquid scintillation counting. Uptake is obtained by subtracting the non-specific binding and passive transport measured in the presence of 100 μM of benztropin. For determination of the inhibition of uptake ten concentrations of drugs covering 6 decades are used.
^3H-DA=3,4-(ring-2,5,6-^3H)dopamine hydrochloride from New England Nuclear, specific activity 30-50 Ci/mmol.

[2] = target: T2, 5-HTT Serotonin Transporter (Rattus norvegicus, UniProt P31652); experiment: Measurements of [3H]-5-HT uptake into rat cortical synaptosomes; assay type: biochemical
T2 construct: Whole brains from male Wistar rats (125-225 g), excluding cerebellum, are homogenized; from tissue; host or cells: rat whole brain excluding cerebellum, synaptosomal (P2) pellet
T2 sequence (P31652 whole entry): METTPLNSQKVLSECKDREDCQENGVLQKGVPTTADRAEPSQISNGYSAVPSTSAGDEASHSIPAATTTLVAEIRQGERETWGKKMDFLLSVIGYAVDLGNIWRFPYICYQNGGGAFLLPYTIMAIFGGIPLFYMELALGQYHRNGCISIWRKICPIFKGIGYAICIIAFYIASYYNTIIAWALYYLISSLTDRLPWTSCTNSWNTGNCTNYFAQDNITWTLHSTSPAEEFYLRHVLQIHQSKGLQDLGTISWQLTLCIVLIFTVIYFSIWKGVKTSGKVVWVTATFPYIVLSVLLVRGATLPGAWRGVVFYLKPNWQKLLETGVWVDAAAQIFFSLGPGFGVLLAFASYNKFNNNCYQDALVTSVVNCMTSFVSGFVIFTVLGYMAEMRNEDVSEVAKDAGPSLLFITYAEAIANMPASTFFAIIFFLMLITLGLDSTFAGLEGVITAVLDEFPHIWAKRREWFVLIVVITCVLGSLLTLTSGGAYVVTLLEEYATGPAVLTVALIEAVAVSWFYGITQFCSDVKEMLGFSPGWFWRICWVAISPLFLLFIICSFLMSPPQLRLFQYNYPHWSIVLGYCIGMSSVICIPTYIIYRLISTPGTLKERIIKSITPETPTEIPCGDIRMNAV
Experimental: Measurements of [^3H]-5-HT Uptake Into Rat Cortical Synaptosomes
The homogenate is centrifuged at 1000×g for 10 rain at 4° C. The pellet is discarded and the supernatant is centrifuged at 40.000×g for 20 min. The final pellet is homogenized in assay buffer (0.5 mg original tissue/well). Test compounds (or buffer) and 10 nM [^3H]-5-HT are added to 96 well plates. […] The incubation is started by adding tissue to a final assay volume of 0.2 mL. After 15 min incubation with radioligand at 37° C., samples are filtered directly on Unifilter GF/C glass fiber filters (soaked for 30 min in 0.1% polyethylenimine) under vacuum and immediately washed with 1×0.2 ml assay buffer. Non-specific uptake is determined using citalopram (10 μM final concentration). Citalopram is included as reference in all experiments as dose-response curve.

[3] = 24 weeks' treatment, patients, cited from earlier work

Sequence of NAT Noradrenergic Transporter (Q9WTR4 6-550 limits assumed): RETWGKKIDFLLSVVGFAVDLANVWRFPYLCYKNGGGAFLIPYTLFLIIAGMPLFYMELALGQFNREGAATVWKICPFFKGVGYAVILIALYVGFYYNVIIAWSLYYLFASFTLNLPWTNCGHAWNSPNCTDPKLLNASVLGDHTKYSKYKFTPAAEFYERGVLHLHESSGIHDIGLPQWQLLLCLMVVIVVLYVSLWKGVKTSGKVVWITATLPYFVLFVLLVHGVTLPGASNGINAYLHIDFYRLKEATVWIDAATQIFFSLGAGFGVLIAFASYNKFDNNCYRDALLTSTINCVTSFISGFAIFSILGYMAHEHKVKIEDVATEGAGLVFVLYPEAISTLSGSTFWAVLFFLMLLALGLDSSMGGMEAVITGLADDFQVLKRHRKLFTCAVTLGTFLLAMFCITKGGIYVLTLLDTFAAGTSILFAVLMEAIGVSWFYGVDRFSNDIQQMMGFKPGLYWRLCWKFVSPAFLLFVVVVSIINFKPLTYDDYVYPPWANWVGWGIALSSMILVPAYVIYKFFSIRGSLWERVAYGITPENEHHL

Structure (SMILES) | IC50 [1] | IC50 (DAT Dopamine Transporter) | IC50 [2] | average weight loss ([3]; 0.25 mg) | average weight loss ([3]; 0.5 mg) | average weight loss ([3]; 1 mg)
CN[C@@H]1C[C@@H](c2c[nH]c3cc(OC)ccc23)c2ccccc21 [Formula X] | 0.1 to 200 nM | 0.1 to 200 nM | 0.1 to 200 nM | – | – | –
CN[C@@H]1C[C@H](c2c[nH]c3c(F)cccc23)c2ccccc21 [Formula VI] | 0.1 to 200 nM | 0.1 to 200 nM | 0.1 to 200 nM | – | – | –
CN[C@@H]1C[C@@H](c2c[nH]c3ccccc23)c2ccccc21 [Formula IX] | 0.1 to 200 nM | 0.1 to 200 nM | 0.1 to 200 nM | – | – | –
CN[C@@H]1C[C@@H](c2c[nH]c3ccc(Cl)cc23)c2ccccc21 [Formula VIII] | 0.1 to 200 nM | 0.1 to 200 nM | 0.1 to 200 nM | – | – | –
CCOC[C@@H]1[C@@H](c2ccc(Cl)c(Cl)c2)C[C@@H]2CC[C@H]1N2C [Tesofensine] | – | – | – | 6.5% | 11.2% | 12.6%
CN[C@H]1C[C@@H](c2c[nH]c3c(F)cccc23)c2ccccc21 [Formula VII] | 0.1 to 200 nM | 0.1 to 200 nM | 0.1 to 200 nM | – | – | –
